Where two headings read alike, the source gives them in different places.
Assays:
CYP2D6 = CYP2D6 (Homo sapiens, UniProt P10635); experiment: CYP2D6 % inhibition; format: in vitro ADME
rat-alpha7-nAChR = molecular target: T1, rat-alpha7-nAChR (Rattus norvegicus, UniProt Q05941); experiment: functional FLIPR assay, alpha7 nAChR stably expressed in GH4C1 cells; format: cell-based
T1 construct: expressed in transfected cells
From the text: Rat GH4C1 cells were then transfected with the rat receptor, cloned and analyzed for functional alpha7 nicotinic receptor expression employing a FLIPR assay to measure changes in intracellular calcium concentrations.
The FLIPR system allows the measurements of real time Ca^2+-concentration changes in living cells using a Ca^2+ sensitive fluorescence dye (such as Fluo4). This instrument enables the screening for agonists and antagonists for alpha 7 nAChR channels stably expressed in GH4C1 cells.
GH4C1 cells stably transfected with rat-alpha7-nAChR (see above) were used. These cells are poorly adherent and therefore pretreatment of flasks and plates with poly-D-lysine was carried out. Cells are grown in 150 cm^2 T-flasks, filled with 30 ml of medium at 37° C. and 5% CO2.
EC50 and IC50 values were calculated using the IDBS XLfit4.1 software package employing a sigmoidal concentration-response (variable slope) equation:
Y=Bottom+((Top−Bottom)/(1+((EC50/X)̂HillSlope))
Certain compounds of the present disclosure were tested using the functional FLIPR primary screening assay employing the stable recombinant GH4C1 cell line expressing the alpha7 nAChR.

[1] = molecular target: T2, alpha3 (ganglionic) nACh receptors (Homo sapiens, UniProt P30926+P32297); experiment: calcium-monitoring FLIPR selectivity assay using the native SH-SY5Y cell line; format: cell-based; conditions: read-out: Alpha 3 EC50
T2 construct: using the native SH-SY5Y cell line; endogenous in cells; host or cells: SH-SY5Y
T2 sequence (P32297 32-505): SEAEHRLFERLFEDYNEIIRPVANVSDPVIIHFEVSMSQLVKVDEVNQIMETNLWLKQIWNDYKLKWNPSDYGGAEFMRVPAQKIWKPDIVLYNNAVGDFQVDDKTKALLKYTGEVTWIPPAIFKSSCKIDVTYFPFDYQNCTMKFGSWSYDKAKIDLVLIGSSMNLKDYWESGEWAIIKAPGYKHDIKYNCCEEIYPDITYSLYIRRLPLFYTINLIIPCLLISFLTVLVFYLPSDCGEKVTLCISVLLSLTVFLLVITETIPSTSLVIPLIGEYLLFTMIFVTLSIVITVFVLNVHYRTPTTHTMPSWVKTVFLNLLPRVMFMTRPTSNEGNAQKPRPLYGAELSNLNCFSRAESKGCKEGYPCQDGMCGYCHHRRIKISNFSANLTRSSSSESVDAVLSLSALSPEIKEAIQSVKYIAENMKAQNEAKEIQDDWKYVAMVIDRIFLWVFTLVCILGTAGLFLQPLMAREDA
T2 sequence (P30926 22-498): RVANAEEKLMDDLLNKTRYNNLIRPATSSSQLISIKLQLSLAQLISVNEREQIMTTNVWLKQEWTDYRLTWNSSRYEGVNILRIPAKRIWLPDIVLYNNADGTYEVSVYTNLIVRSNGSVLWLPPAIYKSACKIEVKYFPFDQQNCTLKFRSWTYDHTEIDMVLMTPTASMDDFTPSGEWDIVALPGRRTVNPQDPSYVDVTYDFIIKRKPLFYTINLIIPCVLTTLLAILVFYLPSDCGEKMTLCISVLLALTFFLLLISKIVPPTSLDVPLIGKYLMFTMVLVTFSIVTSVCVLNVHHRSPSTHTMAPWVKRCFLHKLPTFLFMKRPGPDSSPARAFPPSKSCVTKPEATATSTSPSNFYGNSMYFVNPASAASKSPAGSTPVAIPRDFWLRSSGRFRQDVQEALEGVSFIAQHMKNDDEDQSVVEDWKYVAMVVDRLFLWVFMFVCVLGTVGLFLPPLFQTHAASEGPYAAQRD
From the text: Functional FLIPR assays were developed in order to test the selectivity of compounds against the alpha1 (muscular) and alpha3 (ganglionic) nACh receptors and the structurally related 5-HT3 receptor. […] In order to test selectivity against the 5-HT3 receptor, a recombinant cell line was constructed expressing the human 5-HT3A receptor in HEK 293 cells and a calcium-monitoring FLIPR assay employed.

CYP2C9 = CYP2C9 (Homo sapiens, UniProt P11712); experiment: CYP2C9 % inhibition; format: in vitro ADME
Sequence of CYP2C9 (P11712 whole entry, species assumed): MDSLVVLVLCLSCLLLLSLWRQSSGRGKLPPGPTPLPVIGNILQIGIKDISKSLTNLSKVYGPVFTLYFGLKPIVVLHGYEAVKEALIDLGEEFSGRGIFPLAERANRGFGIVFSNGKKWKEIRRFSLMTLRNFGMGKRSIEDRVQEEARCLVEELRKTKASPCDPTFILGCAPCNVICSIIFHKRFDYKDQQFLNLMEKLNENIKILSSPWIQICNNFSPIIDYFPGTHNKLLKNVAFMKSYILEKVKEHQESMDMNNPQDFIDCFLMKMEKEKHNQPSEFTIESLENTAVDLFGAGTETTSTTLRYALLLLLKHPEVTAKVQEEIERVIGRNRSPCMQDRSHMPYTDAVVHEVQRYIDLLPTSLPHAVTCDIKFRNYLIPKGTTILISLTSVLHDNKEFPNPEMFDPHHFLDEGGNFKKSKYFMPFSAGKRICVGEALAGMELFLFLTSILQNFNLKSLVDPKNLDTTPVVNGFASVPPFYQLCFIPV

CYP3A4 = CYP3A4 (Homo sapiens, UniProt P08684); experiment: CYP3A4 % inhibition; format: in vitro ADME
Sequence of CYP3A4 (P08684 whole entry, species assumed): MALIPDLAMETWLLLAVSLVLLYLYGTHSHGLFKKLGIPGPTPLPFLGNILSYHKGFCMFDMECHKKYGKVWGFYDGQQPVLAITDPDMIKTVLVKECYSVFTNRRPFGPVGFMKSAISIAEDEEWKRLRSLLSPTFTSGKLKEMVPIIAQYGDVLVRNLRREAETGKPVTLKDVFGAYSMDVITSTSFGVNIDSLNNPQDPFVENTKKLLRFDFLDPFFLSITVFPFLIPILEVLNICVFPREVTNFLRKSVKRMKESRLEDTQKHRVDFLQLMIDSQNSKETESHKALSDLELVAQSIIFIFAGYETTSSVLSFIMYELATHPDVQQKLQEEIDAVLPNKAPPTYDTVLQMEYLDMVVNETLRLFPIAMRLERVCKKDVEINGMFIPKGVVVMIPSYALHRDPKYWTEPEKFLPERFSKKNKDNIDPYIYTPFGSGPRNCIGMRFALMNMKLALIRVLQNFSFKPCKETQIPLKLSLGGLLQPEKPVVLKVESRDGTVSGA

[2] = GH4C1 cell line expressing the alpha7 nAChR, concentration-response curves, read-out: Alpha 7 EC50

T1 sequence (Q05941 23-502): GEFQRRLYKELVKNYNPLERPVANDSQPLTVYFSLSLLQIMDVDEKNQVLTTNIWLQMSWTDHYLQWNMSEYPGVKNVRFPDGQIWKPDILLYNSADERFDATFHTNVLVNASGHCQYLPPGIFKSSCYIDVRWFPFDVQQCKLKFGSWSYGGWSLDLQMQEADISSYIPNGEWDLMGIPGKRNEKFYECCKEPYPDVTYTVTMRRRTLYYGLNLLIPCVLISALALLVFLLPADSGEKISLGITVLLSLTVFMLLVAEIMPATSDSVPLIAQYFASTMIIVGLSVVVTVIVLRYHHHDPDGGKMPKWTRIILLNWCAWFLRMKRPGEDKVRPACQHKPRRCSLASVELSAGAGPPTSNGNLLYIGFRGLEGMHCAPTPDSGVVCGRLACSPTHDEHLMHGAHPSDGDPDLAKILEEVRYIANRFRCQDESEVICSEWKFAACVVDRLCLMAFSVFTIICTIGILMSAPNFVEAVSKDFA
Sequence of CYP2D6 (P10635 whole entry, species assumed): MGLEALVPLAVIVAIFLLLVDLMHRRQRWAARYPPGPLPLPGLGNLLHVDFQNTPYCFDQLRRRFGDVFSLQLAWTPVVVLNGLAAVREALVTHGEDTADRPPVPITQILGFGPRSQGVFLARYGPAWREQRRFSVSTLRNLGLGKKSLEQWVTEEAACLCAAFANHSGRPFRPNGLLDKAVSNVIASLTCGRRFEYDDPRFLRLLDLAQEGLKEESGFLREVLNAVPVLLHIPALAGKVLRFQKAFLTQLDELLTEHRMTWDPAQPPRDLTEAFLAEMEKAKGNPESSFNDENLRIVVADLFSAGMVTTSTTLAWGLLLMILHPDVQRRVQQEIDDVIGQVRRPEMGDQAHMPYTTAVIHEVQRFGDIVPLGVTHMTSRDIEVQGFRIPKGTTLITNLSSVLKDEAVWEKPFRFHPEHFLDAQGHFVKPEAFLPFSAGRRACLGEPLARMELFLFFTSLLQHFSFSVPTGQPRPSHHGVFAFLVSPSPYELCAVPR

Structure (SMILES)	CYP2D6 % inhibition (CYP2D6) [%]	EC50 (rat-alpha7-nAChR; [2]) [nM]	EC50 [1] [nM]	CYP2C9 % inhibition (CYP2C9) [%]	CYP3A4 % inhibition (CYP3A4) [%]	EC50 (rat-alpha7-nAChR; assay validation with agonists, alpha7 nAChR in GH4C1 cells, concentration range 0.001 to 30 microM, read-out: EC50) [nM]
Cn1cc(-c2ccc(NC(=O)NCCCCN3CCCCC3)cn2)cn1	1	450	> 30000	3	−4	
O=C(NCCCCN1CCCCC1)Nc1ccc(-c2cccnc2)cc1	72	100	3610	−22	2	
O=C(NCCCCN1CCCCC1)Nc1ccc(-c2cccc(F)c2)nc1	10	180		0	26	
COc1ncccc1-c1ccc(NC(=O)NCCCCN2CCCCC2)cn1 [drawing 63]	8		5670	−36	−21	
COc1ccc(F)c(-c2ccc(NC(=O)NCCCCN3CCCCC3)cc2)c1	83	100	2320	−26	51	
COc1ncccc1-c1ccc(NC(=O)NCCCCN2CCCCC2)cn1 [drawing 62]	8		15700	−12	−4	
O=C(NCCCCN1CCCCC1)Nc1ccc(-c2cccs2)cc1	69	190	3560	−5	24	
O=C(NCCCCN1CCCCC1)Nc1ccc(-c2cccnc2)nc1	22	590	9880	−3	0	
O=C(NCCCCN1CCCCC1)Nc1ccc(-c2ccccc2F)cc1	75	190	1500	−1	−17	
O=C(NCCCCN1CCCCC1)Nc1ccc(-c2ccccc2)nc1	6	90	10100	−4	−21	
C[N+]1(C)CCN(c2ccccc2)CC1 [DMPP, reference compound]						980 ± 470
O=C(NCCCCN1CCCCC1)Nc1ccc(-c2ccc(F)cc2)cc1	65	220	1730	−16	−13	
O=C(NCCCCN1CCCCC1)Nc1ccc(-c2ccc3c(c2)OCO3)cc1	97	100	1720	0	74	
COc1ccc(-c2ccc(NC(=O)NCCCCN3CCCCC3)cc2)cc1	97	220	1770	−14	32	
COc1ccccc1-c1ccc(NC(=O)NCCCCN2CCCCC2)cc1	38	170	1080	−2	5	
O=C(NCCCCN1CCCCC1)Nc1ccc(-c2ccc(F)nc2)nc1	8	720		−10	−19	
O=C(NCCCCN1CCCCC1)Nc1ccc(-c2ccc(F)cc2)nc1			9530			
O=C(NCCCCN1CCCCC1)Nc1ccc(-c2cccc(F)c2)cc1	62	110	1780	−12	−21	
O=C(NCCCC[N+]1([O-])CCCCC1)Nc1ccc(-c2ccc(F)cc2)nc1		460	9800			
O=C(NCCCCN1CCCCC1)Nc1ccc(-c2ccccc2)cc1	64	310	2840	2	51	
Cn1cc(-c2ccc(NC(=O)NCCCCN3CCCCC3)cc2)cn1	45	130	5040	9	68	
O=C(NCCCCN1CCCCC1)Nc1ccc(-c2ccccc2F)nc1	14	200	5550	−10	−3	
COc1ccccc1-c1ccc(NC(=O)NCCCCN2CCCCC2)cn1	8	260	3860	6	8	
O=C(NCCCCN1CCCCC1)Nc1ccc(-c2ccncc2)nc1	12	400		1	−1	
O=C(NCCCCN1CCCCC1)Nc1ccc(-c2ccc3c(c2)OCO3)nc1	79	140		6	65	
O=C(NCCCCN1CCCCC1)Nc1ccc(-c2cccs2)nc1	7	100	8430	2	2	
COc1ccc(-c2ccc(NC(=O)NCCCCN3CCCCC3)cn2)cc1	54	260	4120	−15	−8	
O=C(NCCCCN1CCCCC1)Nc1ccc(-c2ccc(F)nc2)cc1	21	130	1210	−18	−22	
COc1ccc(F)c(-c2ccc(NC(=O)NCCCCN3CCCCC3)cn2)c1	18	80	4340	10	43	
O=C(NCCCCN1CCCCC1)Nc1ccc(-c2ccncc2)cc1	48	180	2950	6	17	

Source: patent publication US20100016343A1 (WYETH, priority 2008, published 2010)
